Read-outs that look alike come from different tables or passages of the source.
Columns and labels:
human (HsTIM) = target: T1, human (HsTIM) (Homo sapiens, UniProt P60174); test: Selectivity assay, inhibition of HsTIM; assay type: biochemical; conditions: read-out: inhibition against HsTIM
T1 construct: made in house; host or cells: Escherichia coli
Description: (§1) Expression and purification of proteins: FhTIM, RabbitTIM and HsTIM were expressed in Escherichia coli and purified as described in the literature[31],[37]. After purification, the enzyme, dissolved in 100 mM triethanolamine, 10 mM EDTA and 1 mM dithiothreitol (pH 8), was precipitated with ammonium sulfate (75% saturation) and stored at 4 °C. Before use, extensive dialysis against 100 mM triethanolamine/10 mM EDTA (pH 7.4) was performed. Protein concentration was determined by absorbance at 280 nm for FhTIM (ε = 33,460 M^−1cm^−1) and for RabbitTIM and HsTIM (ε = 33,460 M^−1cm^−1). Enzymatic activity was determined following the conversion of glyceraldehydes-3-phosphate into dihydroxyacetone phosphate in a coupled enzyme assay. The decrease in absorbance at 340 nm was followed in a multiplate reader VarioskanTM Flash Multimode Reader (Thermo ScientificTM, Waltham, MA, USA) at 38 °C. The reaction mixture (1 mL, pH 7.4) contained 100 mM triethanolamine, 10 mM EDTA, 0.2 mM NADH, 1 mM glyceraldehydes-3-phosphate and 0.9 units of α-glycerol phosphate dehydrogenase. The reaction was initiated by the addition of 5 ng/mL of the TIM of interest. For the inhibition studies, TIM was incubated at a concentration of 5 mg/mL in a buffer containing 100 mM triethanolamine, 10 mM EDTA, pH 7.4 and 10% of DMSO at 37 °C for 1 h. The mixture also contained the compounds, dissolved in DMSO, at the indicated concentrations. After 1 h, 10 µL were withdrawn and added to a final volume of 100 µL of the reaction mixture for the activity assay. The inhibition assay was performed in a 96-well microplate. None of the molecules tested here affected the activity of α-glycerol phosphate dehydrogenase, the enzyme used in the coupled assay. The IC50 value was taken as the concentration of drug needed to reduce the enzymatic activity to 50% by analysis using OriginLab8.5® sigmoidal regression (% of enzymatic activity vs. the logarithm of the compound concentration). The experiments were performed in triplicate in two independent experiments.

[1] = test system: newly excysted juvenile (NEJ) F. hepatica; test: In vitro NEJ treatment; assay type: cell-based, Fasciola hepatica; conditions: NEJ
Description: F. hepatica metacercariae were acquired from DILAVE, MGAP, Uruguay. NEJ were obtained by in vitro excystement as previously described with minor modifications. Briefly, metacercariae were incubated with 1% sodium hypochlorite for 5 min at room temperature to remove the outer cyst wall and then washed exhaustively with PBS 200 U/mL Penicillin G sulfate, […] streptomycin sulfate, 500 ng/mL amphotericin B, 10 mM HEPES, counted and divided into groups of around 20 parasites that were transferred to 12 wells tissue culture plates. Parasites were maintained at 37 °C, 5% CO2 in modified Basch’s medium. At day 1, compounds were added at the indicated concentrations and 0.5% DMSO was added to control groups; each condition was tested in duplicate. NEJ behavior was monitored under a light microscope (Olympus BX41), every day each well was recorded for a minute in order to assess parasite motility and registered using the following score: 3- normally active; 2- reduced activity (sporadic movement); 1- immotile (dead)[48].

rabbit TIM = target: T2, rabbit TIM (Oryctolagus cuniculus, UniProt P00939); test: Selectivity assay, inhibition of rabbit TIM; assay type: biochemical; conditions: read-out: inhibition against rabbit TIM
T2 construct: made in house; host or cells: Escherichia coli
T2 sequence (P00939 whole entry): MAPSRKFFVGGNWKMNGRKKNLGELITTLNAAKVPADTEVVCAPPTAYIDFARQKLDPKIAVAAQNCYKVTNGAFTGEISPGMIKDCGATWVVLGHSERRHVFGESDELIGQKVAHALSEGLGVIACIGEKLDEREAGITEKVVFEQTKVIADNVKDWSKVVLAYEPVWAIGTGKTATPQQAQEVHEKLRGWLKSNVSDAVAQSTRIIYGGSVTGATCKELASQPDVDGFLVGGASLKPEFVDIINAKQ
Description: as §1

S. mansoni somules = S. mansoni somules phenotypic screen in vitro; assay type: cell-based, Schistosoma mansoni; conditions: for S. mansoni somules severity score: score 0 to maximum 4; for SOMULES SEVERITY SCORE: Table 2S, 10 uM
Text: (§2) The NMRI isolate of S. mansoni was maintained by passage through Biomphalaria glabrata snails and 3–5 week-old, female Golden Syrian hamsters (Charles River, San Diego, CA) as intermediate and definite hosts, respectively. A dose of 600 infective larvae (cercariae) was used to infect hamsters. The acquisition, preparation and in vitro maintenance of S. mansoni post-infective larvae (schistosomula or somules) and adults have been already described[5],[50],[51]. Vertebrate animal maintenance and handling at the University of California San Diego Animal Care Facility were in accordance with protocols approved by the university’s Institutional Animal Care and Use Committee (IACUC).
Phenotypic screens with somules were performed as described[5],[50],[51]. Initially, 100 μL Basch medium, 100 U/ml penicillin, […] streptomycin, 4% heat-inactivated FBS (Corning Mediatech) and 1 μl compound in DMSO were added to clear, 96-well round-bottomed plates (Costar cat.# 3367). Then, 100 μL of the same medium containing 40–50 somules was added to mix the compound with somules (final concentration of DMSO was 0.5%). Assay plates were placed into plastic boxes humidified with wet tissue and then incubated at 37 °C in a 5% CO2 environment. Somules phenotypes were recorded every 24 h up to 72 h using an inverted microscope (Zeiss Axiovert 40 C).
(§3) Schistosome phenotypic responses were recorded employing a series of ‘descriptors,’ such as rounding, degeneration, overactivity, loss of translucency and changes in motility, as described previously[5],[50],[51],[53]. To allow for comparisons of compound activity, each descriptor was awarded a value of 1 and these were added up to a maximum ‘severity score’ of 4. Evidence of degeneracy or death was awarded the maximum score of 4. Scores were averaged across duplicate wells for each compound (see details in the supporting information).

[2] = target: Fasciola hepatica TIM (FhTIM) (Fasciola hepatica, UniProt S4UI50); test: Inhibition of recombinant FhTIM, coupled enzyme assay; assay type: biochemical
Fasciola hepatica TIM (FhTIM), sequence (S4UI50 entry or part of it): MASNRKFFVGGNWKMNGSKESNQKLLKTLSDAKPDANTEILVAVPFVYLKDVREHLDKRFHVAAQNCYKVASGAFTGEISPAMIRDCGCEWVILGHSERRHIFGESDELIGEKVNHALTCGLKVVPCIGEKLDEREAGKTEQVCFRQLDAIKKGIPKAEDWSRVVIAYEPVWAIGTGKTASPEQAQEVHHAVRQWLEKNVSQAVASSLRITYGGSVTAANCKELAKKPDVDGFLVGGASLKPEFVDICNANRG
Method in brief: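 E. coli-expressed FhTIM preincubated with compound 1 h at 37 °C in 100 mM triethanolamine, 10 mM EDTA, pH 7.4, 10% DMSO. Aliquot diluted into coupled assay (1 mM glyceraldehyde-3-phosphate, 0.2 mM NADH, α-glycerol phosphate dehydrogenase, pH 7.4) with NADH decrease at 340 nm, 38 °C. Triplicate, two independent experiments.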

S. mansoni adults = S. mansoni adults phenotypic screen ex vivo; assay type: cell-based, Schistosoma mansoni; conditions: Table 2S, 5 uM
Text: as §2
Phenotypic screens with 42-day-old, adult parasites were performed in 24-well plates (Costar cat.# 3526) containing the above medium and approximately five adult males and two females per well. Compound was added in a volume of up to 1 μL DMSO at a concentration of 5 µM (0.05% DMSO final). Assay plates were incubated at 37 °C in a 5% CO2 environment. Parasite phenotypes were recorded at 4, 8 and 24 h using a Zeiss Axiovert 40 C.
as §3

[3] = test system: murine macrophages and bovine sperm; test: Non-specific toxicity against mammalian cells; assay type: cell-based; conditions: for toxicity to mammalian cells in words: herein; for Toxicity mammalian cells: selectivity index parasite vs. mammalian cells, fixed doses 25 and 100 µM
Description: As a proof of concept, we tested the best FhTIM inactivators against F. hepatica and S. mansoni parasites. Also, we use compound 191 as a non-inhibitor which has a closely related structure to that of compound 187. Some compounds were able to kill 100% of the newly excysted juvenile (NEJ) F. hepatica within 4 to 48 h (Table 2 and Fig. 2). […] In parallel, these compounds were assayed to characterize their non-specific toxicity against murine macrophages and bovine sperm. Both models are recommended by FDA as an in vitro prediction of toxicology.
J774.1 murine macrophage cells (ATCC, USA) were grown in DMEM culture milieu containing 4 mM glutamine and supplemented with 10% FCS[20]. The cells were seeded in a 96-well plate (5×10^4 cells in 200 µL culture medium) and incubated at 37 °C in a 5% CO2 atmosphere for 48 h, to allow cell adhesion prior to drug testing. Afterward, cells were exposed for 48 h to the compounds (25–400 µM) or the vehicle for control (0.4% DMSO), and additional controls (cells in medium) were used in each test. Cell viability was then assessed by measuring the mitochondria-dependent reduction of MTT (3-(4,5-dimethylthiazol-2-yl)-2,5-diphenyltetrazolium bromide) to formazan. For this purpose, MTT in sterile PBS (0.2% glucose), pH 7.4, was added to the macrophages to achieve a final concentration of 0.1 mg/mL, and the cells were incubated at 37 °C for 3 h. After removing the medium, formazan crystals were dissolved in 180 µL of DMSO and 20 µL of MTT buffer (0.1 M glycine, 0.1 M NaCl, 0.5 mM EDTA, pH 10.5), and the absorbance at 560 nm was measured. The IC50 was defined as the drug concentration at which 50% of the cells were viable, relative to the control (no drug added), and was determined by analysis using OriginLab8.5® sigmoidal regression (% of viable cells vs. the logarithm of the compound concentration). Tests were performed in triplicate.
Semen samples were obtained from a healthy fertile Hereford bull and kept frozen in 0.5 mL straws (extended in Andromed, Minitube, Germany[47]) under liquid nitrogen until use. The semen used belonged to a single freezing batch that was obtained during a regular collection schedule with an artificial vagina. Samples from three straws were thawed and a sperm pool was prepared in PBS at a concentration of 40 million spermatozoa per mL, then 50 μL of this sperm suspension was carefully mixed with 50 μL of compounds diluted to 100, 50, 25, 12.5 and 6.25 μM or with 1% DMSO in control experiments. Each condition was assayed by duplicate in 96-well plates and controls were assayed by triplicate. Plates were incubated at 37 °C for 1 h with moderate shaking. The motility analysis was carried out using a CASA (Computer Assisted Semen Analyzer) system Androvision (Minitube, Tiefenbach, Germany) with an Olympus BX 41 microscope (Olympus, Japan) equipped with a warm-stage at 37 °C. Each sample (10 μL) was placed onto a Makler Counting Chamber (depth 10 μm, Sefi-Medical Instruments, Israel) and the following parameters were evaluated: percentage of total motile spermatozoa (motility >5 μm/s) and velocity curved line (VCL, >24 μm/s). At least 400 spermatozoa were analyzed from each sample from at least four microscope fields.

[4] = test system: murine macrophages and human peripheral blood mononuclear cells; design: method as in PMID 22536349; conditions: at 100 µM; cited from earlier work
FhTIM = FhTIM (Fasciola hepatica, UniProt S4UI50); test: Microscale thermophoresis (MST) binding to FhTIM; conditions: 24 °C
FhTIM, sequence (S4UI50 entry or part of it): as above
Description: MST experiments were performed according to the NanoTemper technologies protocol in a Monolith NT.115 (red/blue) instrument (NanoTemper Technologies, München, Germany[36]). With this technique, the diffusion behavior of a labeled protein is measured when an infrared light excites the movement of the protein in capillaries. This behavior is the combination of two effects: the fast, local environment-dependent responses of the fluorophore to the temperature jump and the slower diffusive thermophoresis fluorescence changes. It will be modified when the protein is complexed with increasing amounts of unlabeled partners, leading to titration curves that can be fit for Kd estimation. In practice, FhTIM was labeled with the Monolith His-Tag Labeling Kit RED-tris-NTA (NanoTemper Technologies, München, Germany), as described by the manufacturer. The experiments were performed using 20% and 40% MST power and between 20–80% LED power at 24 °C. The MST traces were recorded using the standard parameters: 5 s MST power off, 30 s MST power on, and 5 s MST power off. The compounds were used at high concentrations (around 5 mM) in the bindings check assay with DMSO at 5% v/v. If the binding check was positive, then the affinity determination was performed with the same experimental settings, with serial 2x dilutions of the compound of interest.

[5] = Figure 1, ranges of inhibitory activity, read-out: IC50 range
[6] = recombinant FhTIM, 1 h incubation with compound at 37 °C, read-out: IC50
[7] = Table 1S, screening of 340 compounds in FhTIM, table head prints no unit, µM per b8/b9, read-out: IC50

T1 sequence (P60174 whole entry): as the sequence (P00939 whole entry) above, with K20Q, N21S, T27G, S119A counted along it

SMILES	inhibition at 100 µM (human (HsTIM)) [%]	inhibition at 100 µM (rabbit TIM) [%]	IC50 [2, 5] [µM]	IC50 [2, 6] [µM]	IC50 ([1]; incubation time 72 h) [µM]	IC50 [2, 7] [µM]	Kd (FhTIM) [µM]	SOMULES SEVERITY SCORE (S. mansoni somules; 24 h)	SOMULES SEVERITY SCORE (S. mansoni somules; 48 h)	SOMULES SEVERITY SCORE (S. mansoni somules; 3d)	S. mansoni somules severity score (S. mansoni somules; Table 2, 72 h)	toxicity to mammalian cells in words [3]	Toxicity mammalian cells [3]	toxicity in words [4]	also measured
C=CCn1c(-c2ccc(Cl)cc2)csc1=NN=CC=Cc1ccc([N+](=O)[O-])s1 [Compound 144]	–	–	–	60 ± 2	25 ± 5	–	–	1	2	4	4 (72 h)	non-toxic	NT (when the IC50 vs. the parasite was at least 10 times less than the IC50 vs. the mammalian cells, we considered these compounds as non-toxic (NT))	non-toxic	ADULTS SEVERITY SCORE (S. mansoni adults; 4 h): 0; ADULTS SEVERITY SCORE (S. mansoni adults; 8 h): 0; ADULTS SEVERITY SCORE (S. mansoni adults; 24 h): 0
O=C1C(=Cc2ccc([N+](=O)[O-])s2)C(=O)N(CCc2ccccc2)S(=O)(=O)N1CCc1ccccc1 [Compound 115]	< 20	< 20	< 50	8 ± 2	–	–	120 ± 12	2	3	4	4 (72 h)	–	–	–	IC50 ([1]; Fasciola hepatica, incubation time 72 h): 7 ± 2 µM
CCCCCCN1C(=O)C(=Cc2ccc([N+](=O)[O-])cc2)C(=O)N(CCCCCC)S1(=O)=O [Compound 128]	< 20	< 20	< 50	5 ± 1	–	< 25	120 ± 10	–	–	–	–	–	–	–	IC50 ([1]; Fasciola hepatica, incubation time 12 h): 10 ± 1 µM

Continued by falling IC50 [2, 6], values first:

inhibition at 100 µM (human (HsTIM)) [%]	inhibition at 100 µM (rabbit TIM) [%]	IC50 [2, 5] [µM]	IC50 [2, 6] [µM]	IC50 ([1]; incubation time 72 h) [µM]	IC50 [2, 7] [µM]	Kd (FhTIM) [µM]	SMILES	SOMULES SEVERITY SCORE (S. mansoni somules; 24 h)	SOMULES SEVERITY SCORE (S. mansoni somules; 48 h)	SOMULES SEVERITY SCORE (S. mansoni somules; 3d)	S. mansoni somules severity score (S. mansoni somules; Table 2, 72 h)	toxicity to mammalian cells in words [3]	Toxicity mammalian cells [3]	toxicity in words [4]	also measured
–	–	–	45 ± 4	50 ± 6	50 to 100	–	C=CCn1c(-c2ccc(Cl)cc2)csc1=NN=CC=Cc1cccs1 [Compound 1134]	–	–	–	–	non-toxic	NT (when the IC50 vs. the parasite was at least 10 times less than the IC50 vs. the mammalian cells, we considered these compounds as non-toxic (NT))	non-toxic	–
< 20	< 20	< 50	7 ± 1	–	–	–	O=C1C(=Cc2ccc([N+](=O)[O-])cc2)C(=O)N(CCc2ccccc2)S(=O)(=O)N1CCc1ccccc1 [Compound 110]	0	0	0	–	–	–	–	IC50 ([1]; Fasciola hepatica, incubation time 30 h): 5 ± 2 µM; S. mansoni somules severity score (S. mansoni somules; Table 2, time not given): 0

Source: PMC7018972, “Novel and selective inactivators of Triosephosphate isomerase with anti-trematode activity” (Scientific Reports, 2020)
